Values joined by “and” are separate entries in the source; they are usually repeats but may differ in a detail not shown here. Identical values can stand only once.
What was measured:
[1] = target: T1, HuPON1 purified from serum (Homo sapiens, UniProt P27169); details: read-out: Ki for 2-hydroxyquinoline inhibition of phenyl acetate hydrolysis by HuPON1 purified from serum; cited from earlier work
T1 construct: measured for hydrolysis of phenylacetate by serum huPON1; host or cells: human serum

rePON1 (G3H8) = target: T2, rePON1 (G3H8) (Oryctolagus cuniculus, UniProt P27170, A301G/A320V/A67S/G19R/H177S/I126T/I187A/K138S/K151R/K297E/K93E/L143V/L7P/M130L/M341L/P82S/S101G/V343I); assay: biochemical
T2 construct: leaving the intact, 355 amino acids, PON1 protein without any additions; made in house; host or cells: E. coli Origami B (DE3), truncated pET32 vector without Trx, His and S tags
T2 sequence (P27170 with tags, fused parts or gaps with the stated changes): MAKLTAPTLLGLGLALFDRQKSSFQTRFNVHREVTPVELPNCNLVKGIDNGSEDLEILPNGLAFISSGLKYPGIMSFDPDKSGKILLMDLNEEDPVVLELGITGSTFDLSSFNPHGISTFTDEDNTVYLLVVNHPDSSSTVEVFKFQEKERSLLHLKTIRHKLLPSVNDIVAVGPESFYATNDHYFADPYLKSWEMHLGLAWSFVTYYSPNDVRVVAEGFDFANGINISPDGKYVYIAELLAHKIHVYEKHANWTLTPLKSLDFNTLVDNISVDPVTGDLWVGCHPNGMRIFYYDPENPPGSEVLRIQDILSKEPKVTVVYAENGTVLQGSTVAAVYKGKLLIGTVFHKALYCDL

T1 sequence (P27169 whole entry): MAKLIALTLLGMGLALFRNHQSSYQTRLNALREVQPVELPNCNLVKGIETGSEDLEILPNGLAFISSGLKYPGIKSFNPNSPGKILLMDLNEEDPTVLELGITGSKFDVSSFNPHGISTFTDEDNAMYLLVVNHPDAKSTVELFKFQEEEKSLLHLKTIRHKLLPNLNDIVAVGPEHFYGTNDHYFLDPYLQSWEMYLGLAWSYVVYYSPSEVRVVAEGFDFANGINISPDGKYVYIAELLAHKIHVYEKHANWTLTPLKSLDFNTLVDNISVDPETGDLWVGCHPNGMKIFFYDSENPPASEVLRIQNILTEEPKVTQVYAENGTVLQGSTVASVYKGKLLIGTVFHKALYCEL

**Q.** Which Ki [1] does the source give for Oc1ccc2ccccc2n1 [2-hydroxyquinoline] here?
**A.** ~5 µM

**Q.** And the Ki (rePON1 (G3H8); Inhibition constant (Ki))?
**A.** 11 µM and 3 µM and 4.2 µM

**Q.** And the Ki (rePON1 (G3H8); inhibition constants for phenyl-acetate, paraxon and L-HcyT hydrolysis)?
**A.** 3 to 11 µM
